Assay results taken from ChEMBL document CHEMBL3885881, “DrugMatrix”.

Species on record: Rattus norvegicus
Experiment: DrugMatrix - Regimen: Daily Repeat
Assay type: toxicity, organism-based, Sprague-Dawley
Parameters: regimen Daily Repeat, gender Male, age 6-8 weeks
Conditions: in vivo, po, route oral GAVAGE, […]; for ABSOLUTE BASOPHIL / ABSOLUTE EOSINOPHIL / ABSOLUTE LYMPHOCYTE / ABSOLUTE MONOCYTE / ABSOLUTE SEGMENTED NEUTROPHIL / BASOPHIL / EOSINOPHIL / ERYTHROCYTE COUNT / HEMATOCRIT / HEMOGLOBIN / LEUKOCYTE COUNT / LYMPHOCYTE / MEAN CORPUSCULAR HEMOGLOBIN / MEAN CORPUSCULAR HEMOGLOBIN CONCENTRATION / MEAN CORPUSCULAR VOLUME / MONOCYTE / NEUTROPHIL / NUCLEATED RED BLOOD CELLS / PLATELET COUNT: tissue Blood; for ALANINE AMINOTRANSFERASE / ALBUMIN / ALKALINE PHOSPHATASE / ASPARTATE AMINOTRANSFERASE / BLOOD UREA NITROGEN / CARBON DIOXIDE / CHLORIDE / CHOLESTEROL / CREATINE PHOSPHOKINASE / CREATININE / GLUCOSE / LACTATE DEHYDROGENASE / LIPASE / PHOSPHORUS / POTASSIUM / SODIUM / TOTAL BILIRUBIN / TOTAL PROTEIN / URIC ACID: tissue Plasma
[1] = 0 mg/kg, 72 h, dose level Control, time 3 day
[2] = 0 mg/kg, 120 h, dose level Control, time 5 day
[3] = 30 mg/kg, 72 h, dose level Low, time 3 day

Question: Which “ABSOLUTE BASOPHIL” value [1] does the source give for CCCCC(=O)N(Cc1ccc(-c2ccccc2-c2nnn[nH]2)cc1)[C@H](C(=O)O)C(C)C here?
Answer: 0 CELLS/uL

Question: And the “ABSOLUTE EOSINOPHIL” value [1]?
Answer: 13.67 CELLS/uL

Question: What about the “ABSOLUTE LYMPHOCYTE” value [1] of the same compound?
Answer: 10069.5 CELLS/uL

Question: And the “ABSOLUTE MONOCYTE” value [1]?
Answer: 50 CELLS/uL

Question: What about the “ABSOLUTE SEGMENTED NEUTROPHIL” value [1] of the same compound?
Answer: 516.83 CELLS/uL

Question: What about the BASOPHIL [1] of the same compound?
Answer: 0%

Question: What about the EOSINOPHIL [1] of the same compound?
Answer: 0.17%

Question: What about the “ERYTHROCYTE COUNT” value [1] of the same compound?
Answer: 5.44 x10E6/uL

Question: What about the HEMATOCRIT [1] of the same compound?
Answer: 33.88%

Question: And the HEMOGLOBIN [1]?
Answer: 13.23 G/DL

Question: What about the “LEUKOCYTE COUNT” value [1] of the same compound?
Answer: 10.65 x10E3/uL

Question: And the LYMPHOCYTE [1]?
Answer: 94.67%

Question: And the “MEAN CORPUSCULAR HEMOGLOBIN” value [1]?
Answer: 24.37 pg

Question: And the “MEAN CORPUSCULAR HEMOGLOBIN CONCENTRATION” value [1]?
Answer: 39.05 G/DL

Question: What about the “MEAN CORPUSCULAR VOLUME” value [1] of the same compound?
Answer: 62.38 fL

Question: And the MONOCYTE [1]?
Answer: 0.67%

Question: And the NEUTROPHIL [1]?
Answer: 4.5%

Question: What about the “NUCLEATED RED BLOOD CELLS” value [1] of the same compound?
Answer: 0.33 /100WBC

Question: And the “PLATELET COUNT” value [1]?
Answer: 414.5 x10E3/uL

Question: And the “ALANINE AMINOTRANSFERASE” value [1]?
Answer: 72 u/L

Question: And the ALBUMIN [1]?
Answer: 3.75 G/DL

Question: And the “ALKALINE PHOSPHATASE” value [1]?
Answer: 375 u/L

Question: And the “ASPARTATE AMINOTRANSFERASE” value [1]?
Answer: 87.5 u/L

Question: What about the “BLOOD UREA NITROGEN” value [1] of the same compound?
Answer: 14 mg/dL

Question: And the “CARBON DIOXIDE” value [1]?
Answer: 27.5 mmol/L

Question: What about the CHLORIDE [1] of the same compound?
Answer: 95.83 MEQ/L

Question: What about the CHOLESTEROL [1] of the same compound?
Answer: 68.5 mg/dL

Question: What about the “CREATINE PHOSPHOKINASE” value [1] of the same compound?
Answer: 284.33 u/L

Question: What about the CREATININE [1] of the same compound?
Answer: 0.16 mg/dL

Question: And the GLUCOSE [1]?
Answer: 156.67 mg/dL

Question: What about the “LACTATE DEHYDROGENASE” value [1] of the same compound?
Answer: 101.83 u/L

Question: And the LIPASE [1]?
Answer: 9.67 u/L

Question: What about the PHOSPHORUS [1] of the same compound?
Answer: 10.33 mg/dL

Question: And the POTASSIUM [1]?
Answer: 5.22 MEQ/L

Question: And the SODIUM [1]?
Answer: 137.67 MEQ/L

Question: And the “TOTAL BILIRUBIN” value [1]?
Answer: 0.13 mg/dL

Question: What about the “TOTAL PROTEIN” value [1] of the same compound?
Answer: 5.43 G/DL

Question: What about the “URIC ACID” value [1] of the same compound?
Answer: 0.8 mg/dL

Question: What about the “ABSOLUTE BASOPHIL” value [2] of the same compound?
Answer: 0 CELLS/uL

Question: And the “ABSOLUTE EOSINOPHIL” value [2]?
Answer: 20.67 CELLS/uL

Question: And the “ABSOLUTE LYMPHOCYTE” value [2]?
Answer: 11518.33 CELLS/uL

Question: And the “ABSOLUTE MONOCYTE” value [2]?
Answer: 47 CELLS/uL

Question: And the “ABSOLUTE SEGMENTED NEUTROPHIL” value [2]?
Answer: 614 CELLS/uL

Question: And the BASOPHIL [2]?
Answer: 0%

Question: And the EOSINOPHIL [2]?
Answer: 0.17%

Question: What about the “ERYTHROCYTE COUNT” value [2] of the same compound?
Answer: 5.61 x10E6/uL

Question: And the HEMATOCRIT [2]?
Answer: 34.25%

Question: What about the HEMOGLOBIN [2] of the same compound?
Answer: 13.38 G/DL

Question: What about the “LEUKOCYTE COUNT” value [2] of the same compound?
Answer: 12.2 x10E3/uL

Question: And the LYMPHOCYTE [2]?
Answer: 94.33%

Question: What about the “MEAN CORPUSCULAR HEMOGLOBIN” value [2] of the same compound?
Answer: 23.83 pg

Question: And the “MEAN CORPUSCULAR HEMOGLOBIN CONCENTRATION” value [2]?
Answer: 39.08 G/DL

Question: And the “MEAN CORPUSCULAR VOLUME” value [2]?
Answer: 61.03 fL

Question: What about the MONOCYTE [2] of the same compound?
Answer: 0.33%

Question: And the NEUTROPHIL [2]?
Answer: 5.17%

Question: What about the “NUCLEATED RED BLOOD CELLS” value [2] of the same compound?
Answer: 0 /100WBC

Question: What about the “PLATELET COUNT” value [2] of the same compound?
Answer: 941.83 x10E3/uL

Question: What about the “ALANINE AMINOTRANSFERASE” value [2] of the same compound?
Answer: 68.83 u/L

Question: What about the ALBUMIN [2] of the same compound?
Answer: 4.12 G/DL

Question: What about the “ALKALINE PHOSPHATASE” value [2] of the same compound?
Answer: 492.67 u/L

Question: What about the “ASPARTATE AMINOTRANSFERASE” value [2] of the same compound?
Answer: 83.33 u/L

Question: What about the “BLOOD UREA NITROGEN” value [2] of the same compound?
Answer: 14 mg/dL

Question: And the “CARBON DIOXIDE” value [2]?
Answer: 37 mmol/L

Question: What about the CHLORIDE [2] of the same compound?
Answer: 98.67 MEQ/L

Question: And the CHOLESTEROL [2]?
Answer: 56.5 mg/dL

Question: And the “CREATINE PHOSPHOKINASE” value [2]?
Answer: 167.33 u/L

Question: And the CREATININE [2]?
Answer: 0.17 mg/dL

Question: What about the GLUCOSE [2] of the same compound?
Answer: 157.5 mg/dL

Question: What about the “LACTATE DEHYDROGENASE” value [2] of the same compound?
Answer: 104.83 u/L

Question: What about the LIPASE [2] of the same compound?
Answer: 10 u/L

Question: What about the PHOSPHORUS [2] of the same compound?
Answer: 10.43 mg/dL

Question: What about the POTASSIUM [2] of the same compound?
Answer: 5.46 MEQ/L

Question: And the SODIUM [2]?
Answer: 143.87 MEQ/L

Question: What about the “TOTAL BILIRUBIN” value [2] of the same compound?
Answer: 0.17 mg/dL

Question: What about the “TOTAL PROTEIN” value [2] of the same compound?
Answer: 5.72 G/DL

Question: And the “URIC ACID” value [2]?
Answer: 0.85 mg/dL

Question: What about the “ABSOLUTE BASOPHIL” value [3] of the same compound?
Answer: 0 CELLS/uL

Question: What about the “ABSOLUTE EOSINOPHIL” value [3] of the same compound?
Answer: 32 CELLS/uL

Question: And the “ABSOLUTE LYMPHOCYTE” value [3]?
Answer: 7448.67 CELLS/uL

Question: And the “ABSOLUTE MONOCYTE” value [3]?
Answer: 0 CELLS/uL

Question: And the “ABSOLUTE SEGMENTED NEUTROPHIL” value [3]?
Answer: 586 CELLS/uL

Question: And the BASOPHIL [3]?
Answer: 0%

Question: What about the EOSINOPHIL [3] of the same compound?
Answer: 0.33%

Question: And the “ERYTHROCYTE COUNT” value [3]?
Answer: 5.55 x10E6/uL

Question: And the HEMATOCRIT [3]?
Answer: 33.7%

Question: What about the HEMOGLOBIN [3] of the same compound?
Answer: 13.27 G/DL

Question: What about the “LEUKOCYTE COUNT” value [3] of the same compound?
Answer: 8.07 x10E3/uL

Question: And the LYMPHOCYTE [3]?
Answer: 92.33%

Question: What about the “MEAN CORPUSCULAR HEMOGLOBIN” value [3] of the same compound?
Answer: 23.9 pg

Question: What about the “MEAN CORPUSCULAR HEMOGLOBIN CONCENTRATION” value [3] of the same compound?
Answer: 39.33 G/DL

Question: What about the “MEAN CORPUSCULAR VOLUME” value [3] of the same compound?
Answer: 60.7 fL

Question: What about the MONOCYTE [3] of the same compound?
Answer: 0%

Question: And the NEUTROPHIL [3]?
Answer: 7.33%

Question: What about the “NUCLEATED RED BLOOD CELLS” value [3] of the same compound?
Answer: 0.67 /100WBC

Question: What about the “PLATELET COUNT” value [3] of the same compound?
Answer: 891 x10E3/uL

Question: And the “ALANINE AMINOTRANSFERASE” value [3]?
Answer: 67.67 u/L

Question: And the ALBUMIN [3]?
Answer: 3.93 G/DL

Question: And the “ALKALINE PHOSPHATASE” value [3]?
Answer: 446.33 u/L

Question: And the “ASPARTATE AMINOTRANSFERASE” value [3]?
Answer: 94.33 u/L

Question: And the “BLOOD UREA NITROGEN” value [3]?
Answer: 14.33 mg/dL

Question: And the “CARBON DIOXIDE” value [3]?
Answer: 25 mmol/L

Question: And the CHLORIDE [3]?
Answer: 95.5 MEQ/L

Question: What about the CHOLESTEROL [3] of the same compound?
Answer: 77.67 mg/dL

Question: And the “CREATINE PHOSPHOKINASE” value [3]?
Answer: 130 u/L

Question: What about the CREATININE [3] of the same compound?
Answer: 0.19 mg/dL

Question: What about the GLUCOSE [3] of the same compound?
Answer: 147 mg/dL

Question: And the “LACTATE DEHYDROGENASE” value [3]?
Answer: 98 u/L

Question: And the LIPASE [3]?
Answer: 11.33 u/L

Question: What about the PHOSPHORUS [3] of the same compound?
Answer: 9.5 mg/dL

Question: And the POTASSIUM [3]?
Answer: 5.71 MEQ/L

Question: What about the SODIUM [3] of the same compound?
Answer: 138.1 MEQ/L

Question: And the “TOTAL BILIRUBIN” value [3]?
Answer: 0.1 mg/dL

Question: What about the “TOTAL PROTEIN” value [3] of the same compound?
Answer: 5.53 G/DL

Question: And the “URIC ACID” value [3]?
Answer: 0.57 mg/dL
